From US20240124418A1 (BioTheryX, Inc., priority 2020, published 2024) come the findings set out here.

In experiment [1] the test system is PDE4D, in particular, PDE4D short isoform. Description: Protein degradation assay, western blot, PDE4D in A549 cells. Format: cell-based. Conditions: 24 h treatment, same conditions. Here is the method: (§1) Example B2. Protein Degradation Assay
(§2) A549 cells were grown in RPMI 1640 media supplemented with 10% fetal bovine serum, streptomycin, and penicillin. The cells were plated in 6-well plates at 300,000 cells/well in the growth media. After overnight incubation, the cells were treated with DMSO (control) or a compound at predetermined concentrations (e.g., 10 nM, 100 nM, 1 μM, 3 μM, or 10 μM) for 24 h at 37° C. under 5% CO2. Whole cell extracts were prepared using an immunoprecipitation (IP) lysis buffer. The cells were washed once in PBS, and the cell pellets were resuspended in the IP lysis buffer and incubated for 15 min on ice. Cells debris was removed by centrifugation and the cleared whole cell lysates were transferred to new tubes for further analysis.
(§3) For a western blot analysis, the whole cell protein extracts were separated on 4-12% SDS-polyacrylamide gels, transferred to nitrocellulose, and probed with primary antibodies. Membranes were subsequently washed and probed with IRDYE® secondary antibodies. The signals were detected using an ODYSSEY® Imaging System. The antibodies used in the assay included anti-PDE4B antibody; anti-PDE4D antibodies (top, bottom, and short isoform); β-actin mouse monoclonal antibody; IRDYE® 680RD goat anti-rabbit antibody; and IRDYE® 800CW goat anti-mouse antibody. The compounds provided herein are PDE4 protein degraders.
(In general: In western blotting, separated proteins are transferred to a membrane and probed.)

Another experiment deals with TNF-α. In words: Cell-based TNF-α inhibition assay (LPS-induced PBMCs, Meso Scale). Conditions: PBMC, PBMCs pretreated 1 h, LPS 100 ng/mL 18-24 h, percentage of stimulated DMSO control; for inhibition at 0.1 µM: compound concentration 0.1 μM; for inhibition at 1 µM: compound concentration 1 μM. The method, boiled down: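 Thawed primary PBMCs (200,000 cells/well, RPMI 1640 with 10% FBS) were pretreated with compound for 1 h, then stimulated with 100 ng/mL LPS for 18–24 h. Supernatant TNF-α was measured by Meso Scale, and activity was expressed as percent inhibition relative to the stimulated DMSO control.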

The target in a further experiment is T1, PDE4B (Homo sapiens, UniProt Q07343).
T1 construct: endogenous in cells; host or cells: A549
T1 sequence (Q07343 whole entry): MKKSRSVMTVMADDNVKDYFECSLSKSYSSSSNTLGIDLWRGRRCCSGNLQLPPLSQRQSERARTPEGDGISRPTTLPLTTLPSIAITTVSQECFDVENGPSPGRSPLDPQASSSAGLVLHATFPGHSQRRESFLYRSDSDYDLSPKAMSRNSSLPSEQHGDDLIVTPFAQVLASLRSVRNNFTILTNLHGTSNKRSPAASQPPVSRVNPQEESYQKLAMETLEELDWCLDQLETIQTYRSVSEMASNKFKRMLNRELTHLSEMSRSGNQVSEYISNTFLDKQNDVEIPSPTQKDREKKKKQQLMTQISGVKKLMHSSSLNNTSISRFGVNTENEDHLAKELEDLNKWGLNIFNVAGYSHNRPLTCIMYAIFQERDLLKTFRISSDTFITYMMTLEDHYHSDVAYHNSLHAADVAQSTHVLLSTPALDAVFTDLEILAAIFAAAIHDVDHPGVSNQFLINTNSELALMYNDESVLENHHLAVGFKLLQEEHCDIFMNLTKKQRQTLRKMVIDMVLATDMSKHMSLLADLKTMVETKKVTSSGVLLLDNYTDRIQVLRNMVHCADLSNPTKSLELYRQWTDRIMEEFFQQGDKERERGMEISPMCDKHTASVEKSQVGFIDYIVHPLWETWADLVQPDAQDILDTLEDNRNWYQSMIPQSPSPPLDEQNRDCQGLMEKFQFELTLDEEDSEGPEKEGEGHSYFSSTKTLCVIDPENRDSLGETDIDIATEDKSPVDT
Description: Protein degradation assay, western blot, PDE4B in A549 cells. The settings on record: 24 h treatment, 'as high as about' = upper value for the group, read-out: PDE4B degradation relative to DMSO. It counts as cell-based. Here is the method:
as §1, §2, §3

In the case of `CCOc1cc([C@@H](CS(C)(=O)=O)N2C(=O)c3cccc(NC(C)=O)c3C2=O)ccc1OC` [apremilast], in experiment [1], the “PDE4D degradation (in words)” value is “did not degradate the PDE4D”.

Take `CCOc1cc([C@@H](CS(C)(=O)=O)N2C(=O)c3cccc(NC(=O)CCCCCCCCN4CCC(c5cc(F)cc6c5CN(C5CCC(=O)NC5=O)C6=O)CC4)c3C2=O)ccc1OC` (stereo partly drawn) [Compound A13, 9-(4-(2-(2,6-Dioxopiperidin-3-yl)-6-fluoro-1-oxoisoindolin-4-yl)piperidin-1-yl)-N-(2-((S)-1-(3-ethoxy-4-methoxyphenyl)-2-(methylsulfonyl)ethyl)-1,3-dioxoisoindolin-4-yl)nonanamide]: the inhibition (as a rule, the drop in the measured response relative to a control, in per cent) at 0.1 µM in the experiment on TNF-α is ≥ 60%. The Dmax at PDE4B is ≤ 70%.

`O=C1CCC(N2C(=O)c3cccc(N4CCC(CCCCCCCOc5cc(C(=O)Nc6c(Cl)cncc6Cl)ccc5OC(F)F)CC4)c3C2=O)C(=O)N1` (stereo not drawn) [Compound B14, N-(3,5-Dichloropyridin-4-yl)-4-(difluoromethoxy)-3-((7-(1-(2-(2,6-dioxo-piperidin-3-yl)-1,3-dioxoisoindolin-4-yl)piperidin-4-yl)heptyl)oxy)benzamide]: in the experiment with TNF-α, the inhibition at 0.1 µM is ≥ 60% and the inhibition at 1 µM was ≥ 60%. Further, on PDE4B, the Dmax was ≤ 70%.

In the case of `CCOc1cc([C@@H](CS(C)(=O)=O)N2C(=O)c3cccc(NC(=O)CCCCCCCCC4CCN(c5cccc6c5C(=O)N(C5CCC(=O)NC5=O)C6=O)CC4)c3C2=O)ccc1OC` (stereo partly drawn) [Compound A15, 9-{1-[2-(2,6-Dioxopiperidin-3-yl)-1,3-dioxo-2,3-dihydro-1H-isoindol-4-yl]piperidin-4-yl}-N-{2-[(1S)-1-(3-ethoxy-4-methoxyphenyl)-2-methanesulfonylethyl]-1,3-dioxo-2,3-dihydro-1H-isoindol-4-yl}nonanamide], in the experiment with TNF-α, the inhibition at 0.1 µM was 40 to 60% and the inhibition at 1 µM is ≥ 60%. In addition, the Dmax on PDE4B is ≤ 70%.

Consider `O=C1CCC(N2Cc3c(cc(F)cc3C3CCN(CCCCCCCOc4ccc(C(=O)Nc5c(Cl)cncc5Cl)cc4OCC4CC4)CC3)C2=O)C(=O)N1` (stereo not drawn) [Compound B10, 3-(Cyclopropylmethoxy)-N-(3,5-dichloropyridin-4-yl)-4-((7-(4-(2-(2,6-dioxopiperidin-3-yl)-6-fluoro-1-oxoisoindolin-4-yl)piperidin-1-yl)heptyl)oxy)benzamide], for which, in the experiment on TNF-α, the inhibition at 0.1 µM lay in the range of 20 to 40% and the inhibition at 1 µM was ≥ 60%. In addition, the Dmax on PDE4B is ≤ 70%.

With `CCOc1cc([C@@H](CS(C)(=O)=O)N2C(=O)c3cc(CCCCCCCC4CCN(c5cccc6c5C(=O)N(C5CCC(=O)NC5=O)C6=O)CC4)cc(NC(C)=O)c3C2=O)ccc1OC` (stereo partly drawn) [Compound A8, N-(6-(7-(1-(2-(2,6-Dioxopiperidin-3-yl)-1,3-dioxoisoindolin-4-yl)piperidin-4-yl)-heptyl)-2-((S)-1-(3-ethoxy-4-methoxyphenyl)-2-(methylsulfonyl)ethyl)-1,3-dioxoisoindolin-4-yl)acetamide], in the experiment on TNF-α, the inhibition at 0.1 µM is ≥ 60% and the inhibition at 1 µM is ≥ 60%. The Dmax at PDE4B was ≤ 70%.

Take `O=C1CCC(Nc2cccc(NC(=O)CN3CCN(CCCCOc4cc(C(=O)Nc5c(Cl)cncc5Cl)ccc4OC(F)F)CC3)c2)C(=O)N1` (stereo not drawn) [Compound B25, N-(3,5-Dichloropyridin-4-yl)-4-(difluoromethoxy)-3-(4-(4-(2-((3-((2,6-dioxopiperidin-3-yl)amino)phenyl)amino)-2-oxoethyl)piperazin-1-yl)butoxy)benzamide]: in the experiment on TNF-α, the inhibition at 0.1 µM is ≥ 60% and the inhibition at 1 µM is ≥ 60%. For the same compound, the Dmax at PDE4B was ≤ 70%.

Take `CCOc1cc([C@@H](CS(C)(=O)=O)N2C(=O)c3cccc(NC(=O)CCOCCOCCOCCNc4cccc5c4C(=O)N(C4CCC(=O)NC4=O)C5=O)c3C2=O)ccc1OC` (stereo partly drawn) [Compound A10, 3-(2-(2-(2-((2-(2,6-Dioxopiperidin-3-yl)-1,3-dioxoisoindolin-4-yl)amino)ethoxy)-ethoxy)ethoxy)-N-(2-((S)-1-(3-ethoxy-4-methoxyphenyl)-2-(methylsulfonyl)ethyl)-1,3-dioxoisoindolin-4-yl)propanamide]: in the experiment on TNF-α, the inhibition at 0.1 µM was < 20% and the inhibition at 1 µM was < 20%. The Dmax on PDE4B is ≤ 70%.
